The values below are quoted from earlier work in patent US8592402B2, “Compounds as lysophosphatidic acid receptor antagonists” (Amira Pharmaceuticals, Inc., priority 2009, dated 2013).

Data set [1] relates to human foetal lung fibroblasts.
The test system of data set [2] is UUO mice. As to conditions: compared with LPA1 (−/−) mice.
The subject of data set [3] is mouse epithelial renal cell line, MCT. As to conditions: LPA treatment of MCT cells, co-treatment.
Data set [4] deals with pancreatic cancer cell lines. Conditions: in response to LPA and peritoneal fluid (ascites) from pancreatic cancer patients.
Data set [5] deals with highly peritoneal metastatic pancreatic cancer cell line. As to conditions: LPA-induced and ascites-induced.
Data set [6] relates to nerve-injured mice. As to conditions: pretreatment.

For the compound `Cc1noc(-c2ccc(CSCCC(=O)O)cc2)c1NC(=O)OC(C)c1ccccc1Cl` (stereo not shown) [Ki16425], in data set [1] (bronchoalveolar lavage samples of human subjects with IPF), the fibroblast chemotactic activity entry is “inhibited”. Also, the “chemotaxis of human foetal lung fibroblasts” value in data set [1] (induced by BAL obtained from IPF patients) is “blocked”. Moreover, the “development of renal fibrosis” value in data set [2] was “closely resembled the LPA1 (−/−) mice”. Also, the “induction of CTGF expression” value in data set [3] is “almost completely suppressed”. In addition, in data set [4], the in vitro migration entry is “effectively blocked”. Also, in data set [5], the invasion activity entry is reported as “blocked”.

Regarding `C[C@@H](N)[C@H]1CC[C@H](C(=O)Nc2ccncc2)CC1` [Compound Y-27632], the allodynia and hyperalgesia result in data set [6] was “completely abolished”.
